The target of series [1] is T1, AChE (Electrophorus electricus, UniProt O42275).
T1 construct: purchased Sigma-Aldrich C3389-2KU
The experiment in a line: Kinetic characterization of AChE inhibition (Lineweaver-Burk plot). The format is biochemical. As to conditions: Lineweaver–Burk plots.
Protocol: Three different concentrations (2, 4 and 8 nM) of substrate were mixed in the 1 mL 0.1 M KH2PO4/K2HPO4 buffer (pH 8.0), containing 10 μL AChE, 50 μL of DTNB, and 50 μL substrate. […] A parallel control with no inhibitor in the mixture, allowed adjusting activities to be measured at various times.

Series [2] deals with PC12 cells. The experiment in a line: Protective effect against H2O2-induced cell death in PC12 neurons (MTT). The format is cell-based. The protocol: The neuroprotective activity of compound 4f against oxidative stress-induced cell death in PC12 cells was evaluated. Compound 4f was evaluated at concentrations of 1, 2.5 and 5 µM, and quercetin was used as the reference compound. […] […].
PC12 cells were cultured in DMEM media with 10% fetal calf serum (FCS, Hyclone) containing 100 units/mL penicillin and […] streptomycin under 5% CO2 at 37 °C. To produce oxidative stress, H2O2 was freshly prepared from a 30% stock solution prior to each experiment. PC12 cells were plated in cell culture plates at a density of 10^5 cells per well. In our study, 0.2 mM H2O2 were treated with PC12 cells for 24 h in the injury module, while the compound group cells were pretreated with different concentrations (1, 2.5 and 5 μM) of the compound 4f for 2 h. The control group cells were treated with the same medium without H2O2 or compound 4f. The cell viability of PC12 cells was evaluated using MTT assay. After, PC12 cells were cultured with 5 mg/mL MTT and incubated for 4 h at 37 °C. Then the cells were lysed in dimethyl sulfoxide DMSO ([…]). The absorbance was detected at 570 nm by a microplate reader (Bio-Tek). PC12 cells were cultured without 4f or H2O2 as control group and the results were expressed by percentage of control.

Series [3] has as its target Aβ (1–42) (Homo sapiens, UniProt P05067). As to the kind of experiment: Inhibition of self-mediated Aβ (1–42) aggregation (thioflavin T fluorescence assay). The settings on record: for inhibition at 20 µM: read-out: Aβ (1–42) aggregation inhibition rate.
Protocol: A thioflavin T based fluorometric assay was performed to investigate the self-mediated Aβ (1–42) aggregation [33]. Aβ (1–42) peptide (Sigma-Aldrich) was dissolved in phosphate buffer (0.01 M, pH 7.40) to obtain a 20 μM solution. Compounds were firstly dissolved in DMSO to obtain a 10 mM solution. Inhibitors and the final concentration of Aβ (1–42) were 20 μM. After incubated in 37 °C for 48 h, thioflavin-T (5 μM in 50 mM glycine-NaOH buffer, pH 8.00) was added. […] Each inhibitor was run in triplicate. The fluorescence intensities were recorded, and the percent inhibition on aggregation was calculated by the following expression: (1 − IFi/IFc) × 100% in which IFi and IFc were the fluorescence intensities obtained for absorbance in the presence and absence of inhibitors, respectively, after subtracting the fluorescence of respective blanks.
In series [4] the target is T1, AChE. As to the kind of experiment: biochemical. As to conditions: for IC50: AChE from electric eel, means ± SEM of three experiments, read-out: AchE Inhibition, (IC50); for Selective Index: Selectivity Index = IC50 (BuChE)/IC50 (AChE).
Protocol: (§1) Acetylcholinesterase (AChE, E.C. 3.1.1.7, obtained from electric eel) was purchased from Sigma-Aldrich (St. Louis, MO, USA, product code: C3389-2KU). Butyrylcholinesterase (BuChE, E.C. 3.1.1.8, obtained from equine serum) was purchased from Aladdin (Shanghai, China, product code: B128570-2KU). […] The compounds were dissolved in a minimum volume of DMSO (1%) and then diluted in 0.1 M KH2PO4/K2HPO4 buffer (pH 8.0) to provide a final concentration range.
(§2) Enzyme solutions were prepared to give 2.0 units/ mL in 2 mL aliquots. The assay medium contained phosphate buffer, pH 8.0 (1 mL), 50 μL of 0.01 M DTNB, 10 μL of enzyme, and 50 μL of 0.01 M substrate (ATC). The substrate was added to the assay medium containing enzyme, buffer, and DTNB with inhibitor after 15 min of incubation time. […] In vitro BuChE assay used the similar method described above [31]. Each concentration was assayed in triplicate.
A short description of series [5]: in vitro. As to conditions: human.
Protocol: Thus, we used the methylthiazolyl tetrazolium (MTT) method [30] to perform a neurocyte (SH-SY5Y) toxicity test in vitro.
The SH-SY5Y cell line was seeded on 96-well plates at a density of 10^4 cells/well. […] Subsequently, 10 μL of 5 mg/mL MTT solution was added to each well and further incubated for 4 h at 37 °C. The solution was carefully removed, and each well was treated with DMSO (200 μL for each well). The optical density of the wells was then read on the microplate reader at 570 nm. All the tested compounds were performed in triplicate.
The target of series [6] is T2, BuChE (Equus caballus, UniProt P81908).
T2 construct: purchased Aladdin B128570-2KU; host or cells: equine serum
T2 sequence (P81908 whole entry): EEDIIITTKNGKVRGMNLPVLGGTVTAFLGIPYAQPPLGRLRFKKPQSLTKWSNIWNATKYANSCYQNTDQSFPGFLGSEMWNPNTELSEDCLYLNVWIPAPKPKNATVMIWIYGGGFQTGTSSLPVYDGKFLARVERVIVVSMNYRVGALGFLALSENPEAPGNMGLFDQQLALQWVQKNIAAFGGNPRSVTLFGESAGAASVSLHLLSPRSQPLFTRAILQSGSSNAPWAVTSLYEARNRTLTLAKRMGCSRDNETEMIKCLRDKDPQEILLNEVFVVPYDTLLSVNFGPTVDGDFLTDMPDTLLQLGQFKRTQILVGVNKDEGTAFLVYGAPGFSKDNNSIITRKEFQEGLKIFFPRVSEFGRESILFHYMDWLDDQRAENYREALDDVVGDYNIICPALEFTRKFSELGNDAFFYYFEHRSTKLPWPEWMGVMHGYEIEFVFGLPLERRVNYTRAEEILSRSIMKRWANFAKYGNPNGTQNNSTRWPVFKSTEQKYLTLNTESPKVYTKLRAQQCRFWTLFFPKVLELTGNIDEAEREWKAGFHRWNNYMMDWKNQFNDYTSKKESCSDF
The experiment in a line: biochemical. As to conditions: BuChE from equine serum; means ± SEM of three experiments; read-out: BuChE Inhibition, (IC50).
Protocol: as §1, §2

Series [7] is described as follows: Oxygen radical absorbance capacity-fluorescein (ORAC-FL) assay. The settings on record: Trolox equivalents, Trolox = 1.
Protocol: Vitamin E analogue Trolox was used as the standard, and the results were expressed as Trolox equivalents.
The anti-oxidation activity was tested by using the oxygen radical absorbance capacity-fluorescein (ORAC-FL) assay [25, 32]. All the ORAC-assays measure antioxidant scavenging activity against peroxyl radical induced by 2,2′-azobis (2-amidinopropane) dihydrochloride (AAPH) at 37 °C.
The reaction was conducted with 75 mM phosphate buffer (pH 7.4) and the final reaction mixture was 200 μL. Fluorescein (120 μL, 300 nM final concentration) and antioxidant (20 μL) were placed in the wells of a black 96-well plate, and the mixture was incubated for 15 min at 37 °C. Then AAPH solution (60 μL, 12 mM final concentration) was added rapidly. […] 6-hydroxy-2,5,7,8-tetramethylchroman-2-carboxylic acid (Trolox) was used as a standard (1–5 μM, final concentration). A blank (FL + AAPH) using phosphate buffer instead of antioxidant and Trolox calibration were carried out in each assay. The samples were measured at different concentrations (1–5 μM), and at least three independent assays were performed for each sample. Fluorescence measurements were normalized based on the curve of the blank (without antioxidant). Antioxidant curves (fluorescence versus time) were normalized to the curve of the blank in the same assay, and then the area under the fluorescence decay curve (AUC) was calculated. The net AUC of a sample was obtained by subtracting the AUC from the blank. ORAC-FL values were expressed as Trolox equivalents by using the standard curve calculated for each sample, where the ORAC-FL value of Trolox was taken as one, indicating the antioxidant potency of the test compounds.

Where two headings read alike, the source gives them in different places.

T1 sequence (O42275 24-633): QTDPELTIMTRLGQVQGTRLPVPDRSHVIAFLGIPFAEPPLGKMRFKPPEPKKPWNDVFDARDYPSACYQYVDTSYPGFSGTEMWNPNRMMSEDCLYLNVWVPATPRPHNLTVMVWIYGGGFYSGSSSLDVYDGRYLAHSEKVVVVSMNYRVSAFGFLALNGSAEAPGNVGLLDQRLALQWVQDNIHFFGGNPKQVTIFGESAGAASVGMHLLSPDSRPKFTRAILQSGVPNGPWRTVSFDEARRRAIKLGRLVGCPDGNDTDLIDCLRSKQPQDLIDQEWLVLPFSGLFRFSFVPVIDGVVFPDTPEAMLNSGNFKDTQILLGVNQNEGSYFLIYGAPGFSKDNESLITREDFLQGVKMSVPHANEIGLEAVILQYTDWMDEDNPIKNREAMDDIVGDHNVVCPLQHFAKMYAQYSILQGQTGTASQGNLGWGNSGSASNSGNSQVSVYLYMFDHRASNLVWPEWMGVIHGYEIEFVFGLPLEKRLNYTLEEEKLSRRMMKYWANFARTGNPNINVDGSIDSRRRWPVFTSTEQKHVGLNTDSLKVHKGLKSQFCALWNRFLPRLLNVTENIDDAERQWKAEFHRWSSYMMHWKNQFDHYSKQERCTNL
Chain of Aβ (1–42) (P05067 672-713): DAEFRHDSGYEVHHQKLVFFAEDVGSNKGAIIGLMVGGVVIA

Take `COc1ccc([C@@H]2CC(=O)c3c(O)cc(OCC(=O)NCc4ccc(C(F)(F)F)cc4)cc3O2)cc1O` [Compound 4f, 2-[5-Hydroxy-2-(3-hydroxy-4-methoxyphenyl)-4-oxochroman-7-yloxy]-N-(4-trifluoro-methylbenzyl)acetamide]: the “inhibition type against AChE” value in series [1] is listed as “mixed-type inhibition”. Besides, in series [1] (superscript b not defined, read-out: Ki b), the Ki (commonly the dissociation constant of the complex between target and ligand, obtained from inhibition or displacement) was 4.67 nM. Further, in series [1] (superscript c not defined, read-out: Ki c), the Ki amounted to 4.27 nM. Moreover, the Ki in series [1] (superscript d not defined, read-out: Ki d) came out at 3.28 nM. The “protective capability compared with quercetin” value in series [2] (5 µM, H2O2 200 µM) is listed as “slightly better protective capability than quercetin”. The “cytotoxicity toward the PC12 cells” value in series [2] (1, 2.5 and 5 µM) is given as “no cytotoxicity”. Moreover, the “protection of PC12 neurons against H2O2-induced cell death” value in series [2] (pretreatment at 1, 2.5 and 5 µM, H2O2 200 µM, p-value < 0.01) was “significantly protected the neurons against cell death”. Moreover, in series [3], the IC50 (commonly the point on the concentration scale where inhibition reaches its midpoint) amounted to 8470 ± 440 nM and the inhibition (in general, the drop in the measured response relative to a control, in per cent) at 20 µM is 76.3%. Besides, in series [4], the IC50 turned out to be 9.37 ± 0.87 nM and the “Selective Index” value stood at 305. Moreover, in series [5], the viability (as a rule, a read-out of living cells in per cent, often relative to untreated cells) at 48 h, 1 µM was 100 ± 4.76%; the viability at 48 h, 10 µM was found to be 95.8 ± 7.31%; the viability at 48 h, 50 µM was determined as 83.3 ± 5.44%; the viability at 48 h, 100 µM is 62.3 ± 5.78%. Also, the IC50 in series [6] was 2860 ± 45 nM.
As for `COc1ccc(C2CC(=O)c3c(O)cc(OCC(=O)NCc4ccco4)cc3O2)cc1O` (stereo not shown) [Compound 4t, N-Furan-2-ylmethyl-2-[5-hydroxy-2-(3-hydroxy-4-methoxyphenyl)-4-oxochroman-7-yloxy]acetamide], the inhibition at 20 µM in series [3] worked out at 70.8%. Besides, in series [4], the IC50 stood at 30.6 ± 4.5 nM and the “Selective Index” value is 77. In series [5], the viability at 48 h, 1 µM amounted to 99.9 ± 4.52%; the viability at 48 h, 10 µM is 97.5 ± 3.65%; the viability at 48 h, 50 µM came out at 81.8 ± 4.06%; the viability at 48 h, 100 µM worked out at 61.2 ± 5.12%. For the same molecule, the ORAC in series [7] was 2.6 μM of Trolox equivalent/μMof tested compound. In addition, the concentration for half-maximal inhibition (IC50) in series [6] came out at 2350 ± 104 nM.
Consider `COc1ccc(C2CC(=O)c3c(O)cc(OCC(=O)NCc4ccccc4)cc3O2)cc1O` (stereo not shown) [Compound 4a, N-Benzyl-2-[5-hydroxy-2-(3-hydroxy-4-methoxyphenyl)-4-oxochroman-7-yloxy]-acetamide], for which, in series [3], the inhibition at 20 µM was 73.2%. In addition, in series [4], the IC50 was found to be 25.5 ± 1.32 nM and the “Selective Index” value was found to be 133. In addition, in series [5], the viability at 48 h, 1 µM was 98.2 ± 8.02%; the viability at 48 h, 10 µM amounted to 91.6 ± 5.67%; the viability at 48 h, 50 µM worked out at 81.4 ± 5.23%; the viability at 48 h, 100 µM is 63.2 ± 4.23%. In addition, the IC50 in series [6] is 3400 ± 56 nM.
`COc1ccc(C2CC(=O)c3c(O)cc(OCC(=O)NCc4ccc(Br)cc4)cc3O2)cc1O` (stereo not shown) [Compound 4d, N-(4-Bromobenzyl)-2-[5-hydroxy-2-(3-hydroxy-4-methoxyphenyl)-4-oxochroman-7-yloxy]-acetamide]: in series [4], the IC50 was found to be 15.7 ± 0.95 nM and the “Selective Index” value is recorded as 136. In series [5], the viability at 48 h, 1 µM amounted to 99.9 ± 5.76%; the viability at 48 h, 10 µM was 99.5 ± 6.23%; the viability at 48 h, 50 µM was 86.2 ± 5.14%; the viability at 48 h, 100 µM was determined as 70 ± 4.78%. Moreover, the ORAC in series [7] is listed as 2.6 μM of Trolox equivalent/μMof tested compound. Also, the IC50 in series [6] came to 2130 ± 64 nM.
As for `COc1ccc(C2CC(=O)c3c(O)cc(OCC(=O)NCCc4ccccc4Cl)cc3O2)cc1O` (stereo not shown) [Compound 4p, N-[2-(2-Chlorophenyl)ethyl]-2-[5-hydroxy-2-(3-hydroxy-4-methoxyphenyl)-4-oxo-chroman-7-yloxy]acetamide], in series [4], the IC50 is 17.2 ± 0.45 nM and the “Selective Index” value is 201. Further, in series [5], the viability at 48 h, 1 µM is 99.3 ± 4.34%; the viability at 48 h, 10 µM was determined as 94.4 ± 3.9%; the viability at 48 h, 50 µM worked out at 83.1 ± 4.27%; the viability at 48 h, 100 µM was 64.5 ± 4.82%. The ORAC in series [7] was 2.7 μM of Trolox equivalent/μMof tested compound. Moreover, the half-maximal inhibitory concentration (IC50) in series [6] was found to be 3470 ± 67 nM.
Turning to `COc1ccc(C2CC(=O)c3c(O)cc(OCC(=O)NCc4ccncc4)cc3O2)cc1O` (stereo not shown) [Compound 4s, 2-[5-Hydroxy-2-(3-hydroxy-4-methoxyphenyl)-4-oxochroman-7-yloxy]-N-pyridin-4-ylmethylacetamide], the inhibition at 20 µM in series [3] was 72%. Moreover, in series [4], the IC50 worked out at 27.3 ± 0.99 nM and the “Selective Index” value was found to be 68. Also, in series [5], the viability at 48 h, 1 µM stood at 101 ± 6.17%; the viability at 48 h, 10 µM came to 97.5 ± 5.36%; the viability at 48 h, 50 µM amounted to 78.7 ± 3.46%; the viability at 48 h, 100 µM came out at 59.6 ± 3.61%. Moreover, in series [7], the ORAC is reported as 2.4 μM of Trolox equivalent/μMof tested compound. Besides, in series [6], the IC50 was 1850 ± 55 nM.
